Reference: patent US20230059136A1, “THE COMPOUNDS AND COMPOSITIONS FOR TREATING CONDITIONS ASSOCIATED WITH NLRP ACTIVITY” (Novartis AG, priority 2018, published 2023)

test system: IL-1β production in PMA-differentiated THP-1 cells; assay: IL-1β production in PMA-differentiated THP-1 cells stimulated with gramicidin (hTHP-1 assay containing 2% fetal bovine serum); type: cell-based, human; settings: Homo sapiens, THP-1, Table B1; 2% fetal bovine serum; cells printed as numeric bound; read-out: hTHP-1 IC50 (Average IC50 of compounds in hTHP-1 assay)
Method: Procedure 1: IL-1β Production in PMA-Differentiated THP-1 Cells Stimulated with Gramicidin.
THP-1 cells were purchased from the American Type Culture Collection and sub-cultured according to instructions from the supplier. Cells were cultured in complete RPMI 1640 (containing 10% heat inactivated FBS, penicillin (100 units/ml) and streptomycin (100 μg/ml)), and maintained in log phase prior to experimental setup. Prior to the experiment, compounds were dissolved in dimethyl sulfoxide (DMSO) to generate a 30 mM stock. The compound stock was first pre-diluted in DMSO to 3, 0.34, 0.042 and 0.0083 mM intermediate concentrations and subsequently spotted using Echo550 liquid handler into an empty 384-well assay plate to achieve desired final concentration (e.g. 100, 33, 11, 3.7, 1.2, 0.41, 0.14, 0.046, 0.015, 0.0051, 0.0017 μM). DMSO was backfilled in the plate to achieve a final DMSO assay concentration of 0.37%. The plate was then sealed and stored at room temperature until required.
THP-1 cells were treated with PMA (Phorbol 12-myristate 13-acetate) (20 ng/ml) for 16-18 hours. On the day of the experiment the media was removed and adherent cells were detached with trypsin for 5 minutes. Cells were then harvested, washed with complete RPMI 1640, spun down, and resuspended in RPMI 1640 (containing 2% heat inactivated FBS, penicillin (100 units/ml) and streptomycin (100 μg/ml). The cells were plated in the 384-well assay plate containing the spotted compounds at a density of 50,000 cells/well (final assay volume 50 μl). Cells were incubated with compounds for 1 hour and then stimulated with gramicidin (5 μM) (Enzo) for 2 hours. Plates were then centrifuged at 340 g for 5 min. Cell free supernatant (40 μL) was collected using a 96-channel PlateMaster (Gilson) and the production of IL-1β was evaluated by HTRF (cisbio). The plates were incubated for 18 h at 4° C. and read using the preset HTRF program (donor emission at 620 nm, acceptor emission at 668 nm) of the SpectraMax i3x spectrophotometer (Molecular Devices, software SoftMax 6). A vehicle only control and a dose titration of CRID3 (100-0.0017 μM) were run concurrently with each experiment.
Procedure 2: IL-1β Production in PMA-Differentiated THP-1 Cells Stimulated with Gramicidin.
THP-1 cells were purchased from the American Type Culture Collection and sub-cultured according to instructions from the supplier. Prior to experiments, cells were cultured in complete RPMI 1640 (containing 10% heat inactivated FBS, penicillin (100 units/ml) and streptomycin (100 μg/ml)), and maintained in log phase prior to experimental setup. Prior to the experiment THP-1 were treated with PMA (Phorbol 12-myristate 13-acetate) (20 ng/ml) for 16-18 hours. Compounds were dissolved in dimethyl sulfoxide (DMSO) to generate a 30 mM stock. On the day of the experiment the media was removed and adherent cells were detached with trypsin for 5 minutes. Cells were then harvested, washed with complete RPMI 1640, spun down, resuspended in RPMI 1640 (containing 2% heat inactivated FBS, penicillin (100 units/ml) and streptomycin (100 μg/ml). The cells were plated in a 384-well plate at a density of 50,000 cells/well (final assay volume 50 μl). Compounds were first dissolved in assay medium to obtain a 5× top concentration of 500 μM. 10 step dilutions (1:3) were then undertaken in assay medium containing 1.67% DMSO. 5× compound solutions were added to the culture medium to achieve desired final concentration (e.g. 100, 33, 11, 3.7, 1.2, 0.41, 0.14, 0.046, 0.015, 0.0051, 0.0017 μM). Final DMSO concentration was at 0.37%. Cells were incubated with compounds for 1 hour and then stimulated with gramicidin (5 μM) (Enzo) for 2 hours. Plates were then centrifuged at 340 g for 5 min. Cell free supernatant (40 μL) was collected using a 96-channel PlateMaster (Gilson) and the production of IL-1β was evaluated by HTRF (cisbio). A vehicle only control and a dose titration of CRID3 (100-0.0017 μM) were run concurrently with each experiment. […]

`CC(C)c1cc(C#CC2CCCCC2)cc(C(C)C)c1CC(=O)N=S(N)(=O)c1cc(C(C)(C)O)n(-c2ccccc2)n1` (single isomer, unassigned) [Example 280, (S) or (R)-N-(amino (5-(2-hydroxypropan-2-yl)-1-phenyl-1H-pyrazol-3-yl)(oxo)-λ^6-sulfaneylidene)-2-(4-(cyclohexylethynyl)-2,6-diisopropylphenyl) acetamide] and `CNCc1ccc(S(N)(=O)=NC(=O)Cc2c(C(C)C)cc(C(F)F)cc2C(C)C)cc1` (single isomer, unassigned) [Example 329, (S) or (R)-N-(amino(4-((methylamino)methyl)phenyl)(oxo)-λ^6-sulfaneylidene)-2-(4-(difluoromethyl)-2,6-diisopropylphenyl) acetamide] cannot be ordered by IC50: greater than 30000 nM for the first, greater than 30000 nM for the second.

same assay, conditions: Homo sapiens, THP-1, Table B1; 2% fetal bovine serum; class symbols; read-out: hTHP-1 IC50 (Average IC50 of compounds in hTHP-1 assay)

First: CC(C)c1cc(-c2ccc3c(c2)OC(F)(F)O3)cc(C(C)C)c1CC(=O)N=S(N)(=O)c1ncc(C(C)(C)O)s1 (stereo not drawn) [Example 117, N-(amino(5-(2-hydroxypropan-2-yl)thiazol-2-yl)(oxo)-λ^6-sulfaneylidene)-2-(4-(2,2-difluorobenzo[d][1,3]dioxol-5-yl)-2,6-diisopropylphenyl) acetamide]
Second: COCc1cc(C(C)C)c(CC(=O)N=S(N)(=O)c2ncc(C(C)(C)O)s2)c(C(C)C)n1 (stereo not drawn) [Example 236, N-(amino(5-(2-hydroxypropan-2-yl)thiazol-2-yl)(oxo)-λ^6-sulfaneylidene)-2-(2,4-diisopropyl-6-(methoxymethyl)pyridin-3-yl)acetamide]
The IC50 of the first is lower: 40 to 200 nM for the first, 1000 to 5000 nM for the second. The first is the more potent here.

Compared with `CC(C)c1cc2c(cnn2C)c(C(C)C)c1CC(=O)N=S(N)(=O)c1cnc(C(C)(C)O)s1` (stereo not drawn) [Example 262, N-(amino(2-(2-hydroxypropan-2-yl)thiazol-5-yl)(oxo)-λ^6-sulfaneylidene)-2-(4,6-diisopropyl-1-methyl-1H-indazol-5-yl)acetamide], `CC(C)c1cc2c(c(C(C)C)c1CC(=O)N=S(=O)(NC#N)c1cc(C(C)(C)O)cs1)COC2` (stereo in doubt) [Example 344, (R)-N-(cyanamido(4-(2-hydroxypropan-2-yl)thiophen-2-yl)(oxo)-λ^6-sulfaneylidene)-2-(4,6-diisopropyl-1,3-dihydroisobenzofuran-5-yl)acetamide] is lower in IC50: 5000 to 30000 nM for the first, 200 to 1000 nM for the second. The second is the more potent here.

Work on `CNCc1ccc(S(N)(=O)=NC(=O)Cc2c(C(C)C)cc(C(F)F)cc2C(C)C)cc1` (single isomer, unassigned) [Example 330, (R) or (S)-N-(amino(4-((methylamino)methyl)phenyl)(oxo)-λ^6-sulfaneylidene)-2-(4-(difluoromethyl)-2,6-diisopropylphenyl) acetamide] yielded an IC50 of 1000 to 5000 nM.

same assay, conditions: Homo sapiens, THP-1, Table B2; 2% fetal bovine serum; cells printed as numeric bound; read-out: hTHP-1 IC50 (Average IC50 of compounds in hTHP-1 assay)

`CCn1cc(F)c(S(N)(=O)=NC(=O)Cc2c(C(C)C)cc3c(c2C(C)C)COC3)n1` (single isomer, unassigned) [Example 399, (S) or (R)-N-(amino(1-ethyl-4-fluoro-1H-pyrazol-3-yl)(oxo)-λ^6-sulfaneylidene)-2-(4,6-diisopropyl-1,3-dihydroisobenzofuran-5-yl)acetamide] was tested, and the IC50 was greater than 30000 nM.

same assay, conditions: Homo sapiens, THP-1, Table B2; 2% fetal bovine serum; class symbols; read-out: hTHP-1 IC50 (Average IC50 of compounds in hTHP-1 assay)

First: CC(C)c1cc(C#N)cc(C(C)C)c1CC(=O)N=[S@@](=O)(NC#N)c1sc(C(C)(C)O)nc1CO [Example 366, (R)-N-(cyanamido(4-(hydroxymethyl)-2-(2-hydroxypropan-2-yl)thiazol-5-yl)(oxo)-λ^6-sulfaneylidene)-2-(4-cyano-2,6-diisopropylphenyl)acetamide]
Second: COc1cc(-c2cccc(C(C)C)c2CC(=O)N=S(=O)(NC#N)c2cnc(C(C)(O)CO)s2)ccn1 (stereo in doubt) [Example 367, N-(cyanamido(2-((S)-1,2-dihydroxypropan-2-yl)thiazol-5-yl)(oxo)-λ^6-sulfaneylidene)-2-(2-isopropyl-6-(2-methoxypyridin-4-yl)phenyl)acetamide]
The IC50 of the first is higher: 5000 to 30000 nM for the first, 1000 to 5000 nM for the second.

For `CCn1cc(F)c(S(N)(=O)=NC(=O)Cc2c(C(C)C)cc3c(c2C(C)C)OC(F)(F)O3)n1` (stereo not drawn) [Example 394, N-(amino(1-ethyl-4-fluoro-1H-pyrazol-3-yl)(oxo)-λ^6-sulfaneylidene)-2-(2,2-difluoro-4,6-diisopropylbenzo[d][1,3]dioxol-5-yl)acetamide], the IC50 was 200 to 1000 nM.

same assay, conditions: Table B1; 2% fetal bovine serum; class symbols; read-out: hTHP-1 IC50 (Average IC50 of compounds in hTHP-1 assay)

`CC(C)c1ccc(F)c(C(C)C)c1CC(=O)N=S(N)(=O)c1cnc(C(C)(C)O)s1` (single isomer, unassigned) [Example 162, (S) or (R)-N-(amino(2-(2-hydroxypropan-2-yl)thiazol-5-yl)(oxo)-λ^6-sulfaneylidene)-2-(3-fluoro-2,6-diisopropylphenyl) acetamide] and `CC(C)c1ccc(F)c(C(C)C)c1CC(=O)N=S(N)(=O)c1cnn2c1OCCC2` (single isomer, unassigned) [Example 311, (S) or (R)-N-(amino (6,7-dihydro-5H-pyrazolo[5,1-b][1,3]oxazin-3-yl)(oxo)-λ^6-sulfaneylidene)-2-(3-fluoro-2,6-diisopropylphenyl) acetamide] fall in the same range of IC50: 5000 to 30000 nM for the first, 5000 to 30000 nM for the second.

First: CC(C)c1cc(F)cc(C2CC2)c1CC(=O)N=S(N)(=O)c1sc(C(C)(C)O)cc1F (single isomer, unassigned) [Example 52, (S)- or (R)-2-(2-cyclopropyl-4-fluoro-6-isopropylphenyl)-N-(3-fluoro-5-(2-hydroxypropan-2-yl)thiophen-2-ylsulfonimidoyl)acetamide]
Second: CC(C)c1cc(F)c(F)c(C(C)C)c1CC(=O)N=S(N)(=O)c1nc(C(C)(C)O)cs1 (single isomer, unassigned) [Example 178, (S) or (R)-N-(amino(4-(2-hydroxypropan-2-yl)thiazol-2-yl)(oxo)-λ^6-sulfaneylidene)-2-(3,4-difluoro-2,6-diisopropylphenyl) acetamide]
The IC50 of the first is lower: 8 to 40 nM for the first, 1000 to 5000 nM for the second. The first is the more potent here.

First: CC(C)c1cc(C(F)F)cc(C(C)C)c1CC(=O)N=S(N)(=O)c1ccc(C(C)(C)O)cc1F (single isomer, unassigned) [Example 87, (R)- or (S)-2-(4-(difluoromethyl)-2,6-diisopropylphenyl)-N-(2-fluoro-4-(2-hydroxypropan-2-yl)phenylsulfonimidoyl) acetamide]
Second: CC(C)c1cc(C(F)F)cc(C(C)C)c1CC(=O)N=S(N)(=O)c1ccc(CN(C)C)cc1F (single isomer, unassigned) [Example 215, (S) or (R)-N-(amino(4-((dimethylamino)methyl)-2-fluorophenyl) (oxo)-λ^6-sulfaneylidene)-2-(4-(difluoromethyl)-2,6-diisopropylphenyl) acetamide]
The IC50 of the first is lower: 40 to 200 nM for the first, 1000 to 5000 nM for the second.

In the case of `CCc1c2c(cc(C(C)C)c1CC(=O)N=S(N)(=O)c1cc(C(C)(C)O)cs1)COC2` (single isomer, unassigned) [Example 293, (R) or (S)-N-(amino(4-(2-hydroxypropan-2-yl)thiophen-2-yl)(oxo)-λ^6-sulfaneylidene)-2-(4-ethyl-6-isopropyl-1,3-dihydroisobenzofuran-5-yl)acetamide], the IC50 is reported as 200 to 1000 nM.
